Measured values: BindingDB's records for doi:10.1016/j.ejmech.2021.113474 (Yanbian University, 2021)

Biological target: Hypoxia-inducible factor 1-alpha (Homo sapiens, UniProt Q16665)
Test: Inhibition of hypoxia-induced HIF1alpha transcriptional activity in human Hep3B cells co-transfected with luciferase reporter plasmid containing six copies of HREs and pRL-CMV vector assessed as reduction in luciferase activity incubated for 24 hrs under hypoxic condition by HRE-dependent dual luciferase reporter gene assay

Sequence of Hypoxia-inducible factor 1-alpha (Q16665 whole entry): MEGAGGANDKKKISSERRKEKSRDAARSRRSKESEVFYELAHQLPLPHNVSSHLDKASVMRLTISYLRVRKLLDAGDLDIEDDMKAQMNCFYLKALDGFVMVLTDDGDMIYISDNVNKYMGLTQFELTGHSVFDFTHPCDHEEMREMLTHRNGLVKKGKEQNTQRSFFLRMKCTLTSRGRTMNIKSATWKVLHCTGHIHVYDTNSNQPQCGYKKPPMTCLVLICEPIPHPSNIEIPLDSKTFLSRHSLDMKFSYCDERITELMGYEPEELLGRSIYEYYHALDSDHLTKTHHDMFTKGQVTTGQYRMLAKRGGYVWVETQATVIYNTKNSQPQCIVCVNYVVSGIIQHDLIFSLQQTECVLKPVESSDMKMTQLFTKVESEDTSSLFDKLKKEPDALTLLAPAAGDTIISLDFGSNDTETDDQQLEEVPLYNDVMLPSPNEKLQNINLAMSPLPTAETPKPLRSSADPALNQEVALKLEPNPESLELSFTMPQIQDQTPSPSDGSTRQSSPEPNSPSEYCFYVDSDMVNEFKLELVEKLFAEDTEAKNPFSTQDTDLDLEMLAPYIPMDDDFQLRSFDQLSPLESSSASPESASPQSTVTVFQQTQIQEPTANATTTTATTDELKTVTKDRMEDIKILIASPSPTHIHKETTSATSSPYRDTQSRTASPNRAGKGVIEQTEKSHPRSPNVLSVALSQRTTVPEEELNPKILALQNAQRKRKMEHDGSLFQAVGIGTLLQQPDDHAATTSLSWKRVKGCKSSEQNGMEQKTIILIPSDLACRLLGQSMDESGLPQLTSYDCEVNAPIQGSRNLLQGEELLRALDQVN

Row | Structure (SMILES) | IC50
1 | CC1=C(O)C(=O)C=C2C1=CC=C1[C@@]2(C)CC[C@@]2(C)[C@@H]3C[C@](C)(C(=O)OCC(=O)Nc4cccc5ncccc45)CC[C@]3(C)CC[C@]12C | 360 nM
2 | CC1=C(O)C(=O)C=C2C1=CC=C1[C@@]2(C)CC[C@@]2(C)[C@@H]3C[C@](C)(C(=O)OCC(=O)Nc4ccnc5ccccc45)CC[C@]3(C)CC[C@]12C | 490 nM
3 | CC1=C(O)C(=O)C=C2C1=CC=C1[C@@]2(C)CC[C@@]2(C)[C@@H]3C[C@](C)(C(=O)OCC(=O)Nc4cnc5ccccc5c4)CC[C@]3(C)CC[C@]12C | 90 nM
4 | CC1=C(O)C(=O)C=C2C1=CC=C1[C@@]2(C)CC[C@@]2(C)[C@@H]3C[C@](C)(C(=O)OCC(=O)NCc4cn(-c5ccccc5)nn4)CC[C@]3(C)CC[C@]12C | 600 nM
5 | CC1=C(O)C(=O)C=C2C1=CC=C1[C@@]2(C)CC[C@@]2(C)[C@@H]3C[C@](C)(C(=O)OCC(=O)Nc4cccc5cccnc45)CC[C@]3(C)CC[C@]12C | 350 nM
6 | CCOP(=O)(OCC)C(NC(=O)COC(=O)[C@]1(C)CC[C@]2(C)CC[C@]3(C)C4=CC=C5C(=CC(=O)C(O)=C5C)[C@]4(C)CC[C@@]3(C)[C@@H]2C1)c1ccc(OC)cc1 (stereo not given in full) | 160 nM
7 | CCOP(=O)(OCC)C(NC(=O)COC(=O)[C@]1(C)CC[C@]2(C)CC[C@]3(C)C4=CC=C5C(=CC(=O)C(O)=C5C)[C@]4(C)CC[C@@]3(C)[C@@H]2C1)c1ccccc1 (stereo not given in full) | 240 nM
8 | CC1=C(O)C(=O)C=C2C1=CC=C1[C@@]2(C)CC[C@@]2(C)[C@@H]3C[C@](C)(C(=O)OCCOc4cccc5ncccc45)CC[C@]3(C)CC[C@]12C | > 30000 nM
9 | CC1=C(O)C(=O)C=C2C1=CC=C1[C@@]2(C)CC[C@@]2(C)[C@@H]3C[C@](C)(C(=O)OCCOc4cc(=O)oc5ccccc45)CC[C@]3(C)CC[C@]12C | 150 nM
10 | CC1=C(O)C(=O)C=C2C1=CC=C1[C@@]2(C)CC[C@@]2(C)[C@@H]3C[C@](C)(C(=O)OCC(=O)NCc4cn(-c5ccc(Cl)c(Cl)c5)nn4)CC[C@]3(C)CC[C@]12C | 120 nM
11 | COc1ccc(-n2cc(CNC(=O)COC(=O)[C@]3(C)CC[C@]4(C)CC[C@]5(C)C6=CC=C7C(=CC(=O)C(O)=C7C)[C@]6(C)CC[C@@]5(C)[C@@H]4C3)nn2)cc1 | > 30000 nM
12 | CC1=C(O)C(=O)C=C2C1=CC=C1[C@@]2(C)CC[C@@]2(C)[C@@H]3C[C@](C)(C(=O)OCC(=O)NCc4cn(-c5ccc(C)cc5)nn4)CC[C@]3(C)CC[C@]12C | > 30000 nM
13 | CC1=C(O)C(=O)C=C2C1=CC=C1[C@@]2(C)CC[C@@]2(C)[C@@H]3C[C@](C)(C(=O)OCC(=O)Nc4ccc(F)nc4)CC[C@]3(C)CC[C@]12C | 160 nM
14 | CC1=C(O)C(=O)C=C2C1=CC=C1[C@@]2(C)CC[C@@]2(C)[C@@H]3C[C@](C)(C(=O)OCC(=O)NCc4cn(-c5ccc(Cl)cc5)nn4)CC[C@]3(C)CC[C@]12C | > 30000 nM
15 | CCOP(=O)(OCC)C(NC(=O)COC(=O)[C@]1(C)CC[C@]2(C)CC[C@]3(C)C4=CC=C5C(=CC(=O)C(O)=C5C)[C@]4(C)CC[C@@]3(C)[C@@H]2C1)c1ccc(F)cc1 (stereo not given in full) | > 30000 nM
16 | CC1=C(O)C(=O)C=C2C1=CC=C1[C@@]2(C)CC[C@@]2(C)[C@@H]3C[C@](C)(C(=O)OCCOc4cc(C)oc(=O)c4)CC[C@]3(C)CC[C@]12C | 150 nM
17 | CC1=C(O)C(=O)C=C2C1=CC=C1[C@@]2(C)CC[C@@]2(C)[C@@H]3C[C@](C)(C(=O)OCC(=O)Nc4cc(C)on4)CC[C@]3(C)CC[C@]12C | 70 nM
18 | CC1=C(O)C(=O)C=C2C1=CC=C1[C@@]2(C)CC[C@@]2(C)[C@@H]3C[C@](C)(C(=O)OCCOc4ccc5cccnc5c4)CC[C@]3(C)CC[C@]12C | 170 nM
19 | CC1=C(O)C(=O)C=C2C1=CC=C1[C@@]2(C)CC[C@@]2(C)[C@@H]3C[C@](C)(C(=O)OCC(=O)Nc4ccc5ncccc5c4)CC[C@]3(C)CC[C@]12C | 240 nM
20 | CC1=C(O)C(=O)C=C2C1=CC=C1[C@@]2(C)CC[C@@]2(C)[C@@H]3C[C@](C)(C(=O)OCCOc4ccc5ccc(=O)oc5c4)CC[C@]3(C)CC[C@]12C | 80 nM
21 | CCOP(=O)(OCC)C(NC(=O)COC(=O)[C@]1(C)CC[C@]2(C)CC[C@]3(C)C4=CC=C5C(=CC(=O)C(O)=C5C)[C@]4(C)CC[C@@]3(C)[C@@H]2C1)c1ccc(C)cc1 (stereo not given in full) | > 30000 nM
22 | CC1=C(O)C(=O)C=C2C1=CC=C1[C@@]2(C)CC[C@@]2(C)[C@@H]3C[C@](C)(C(=O)OCC(=O)Nc4ccc(F)cn4)CC[C@]3(C)CC[C@]12C | 250 nM
23 | CC1=C(O)C(=O)C=C2C1=CC=C1[C@@]2(C)CC[C@@]2(C)[C@@H]3C[C@](C)(C(=O)OCC(=O)Nc4ccncc4)CC[C@]3(C)CC[C@]12C | 32000 nM
24 | CC1=C(O)C(=O)C=C2C1=CC=C1[C@@]2(C)CC[C@@]2(C)[C@@H]3C[C@](C)(C(=O)OCCOc4cnc5ccccc5c4)CC[C@]3(C)CC[C@]12C | 50 nM
25 | C=c1c(O)c(O)cc2c1=CC=C1[C@@]2(C)CC[C@@]2(C)[C@@H]3C[C@](C)(C(=O)O)CC[C@]3(C)CC[C@]12C | 250 nM
